Columns and labels:
Type in all cases: in vivo
Centauria cyanus = experiment: Greenhouse trial, post-emergence: CENCY; conditions: post-emergence; for % activity 28 DAT: CENCY
Method: (§1) The test plants have been seeded, separately for each species, in plastic containers in sandy loamy soil containing 5% organic matter.
(§2) For the post emergence treatment, the plants were first grown to the 2 leaf station (GS 12). Here, the herbicidal compositions were suspended or emulsified in water as distribution medium and sprayed using finely distributing nozzels.
(§3) The plants have been cultivated due to there individual requirements at 10-25° C. and 20-35° C. The plants were irrigated due to there necessity. […]
(§4) The evaluation for the damage on undesired weeds caused by the chemical compositions was carried out using a scale from 0 to 100%, compared to the untreated control plants. Here, 0 means no damage and 100 means complete destruction of the plants.
(§5) Calculation of expected activity of binary mixtures was done by using the Colby-Formula according to Example 1.

Mercurialis annua = experiment: Greenhouse trial, post-emergence: MERAN; conditions: for % activity 28 DAT: MERAN
Method: as §1, §2, §3, §4, §5

Papaver rhoeas [1] = experiment: Greenhouse trial, post-emergence: PAPRH
Method: as §1, §2, §3, §4, §5

Lamium purpureum = experiment: Greenhouse trial, post-emergence: LAMPU; conditions: for % activity 28 DAT: LAMPU
Method: as §1, §2, §3, §4, §5

Capsella bursa-pasturis = experiment: Greenhouse trial, post-emergence: CAPBP; conditions: post-emergence (Table 10)
Method: as §1, §2, §3, §4, §5

Stellaria media [2] = experiment: Greenhouse trial, post-emergence: STEME; conditions: flufenacet 60 g ai/ha solo, post-emergence
Method: as §1, §2, §3, §4, §5

Stellaria media [3] = experiment: Field trial Example 2, combined application: STEME; conditions: Metazachlor 500 g ai/ha solo, 28 DAT
Method: (§6) Aminiopyralid was used as commercial aquaeous solution having an active ingredient concentration of 240 g/l (Milestone™). Metazachlor was used as a commercial suspension concentrate having an active ingredient concentration of 500 g/l (Butisan S®).
as §4
(§7) The value E, which is to be expected if the activity of the individual compounds is just additive, was calculated using the method of S. R. Colby (1967) “Calculating synergistic and antagonistic responses of herbicide combinations”, Weeds 15, p. 22 ff.
(§8) The performance of aminopyralid, applied as an alone treatment at […] and 15 g ai/ha, and the performance of metazachlor, applied as an alone treatment at 375 and 500 g ai/ha, as well as the mixtures of the both compounds have been assessed in winter oilseed rape field trials. The trials have been conducted in Germany at two locations.
(§9) Post emergence treatment was applied by means of fine distributed nozzels at the growth stage (GS/BBCH 11/12).

Anthemis arvensis = experiment: Field trial Example 2, combined application: ANTAR
Method: as §6, §4, §7, §8, §9

Papaver rhoeas [4] = experiment: Field trial Example 2, combined application: PAPRH
Method: as §6, §4, §7, §8, §9

Matricaria inodora = experiment: Field trial Example 2, combined application: MATIN
Method: as §6, §4, §7, §8, §9

Matricaria chamomilla = experiment: Greenhouse trial, post-emergence: MATCH; conditions: solo, 187 g ai/ha, greenhouse
Method: as §1, §2
The plants have been cultivated due to there individual requirements at 10-25° C. and 20-35° C. The plants were irrigated due to there necessity.
In the following experiments, the herbicidal activity for the individual herbicide compounds (solo and mixture applications), the herbicidal succession was assessed 14 days after treatment (DAT).
as §4, §5
E=(X+Y+Z)−(X*Y+X*Z+Y*Z/100)+(X*Y*Z/1000)
Tables 6 to 10 relate to the herbicidal activity, in greenhouse trials, of the individual actives and the combination in post-emergence application 14 DAT.

Alopecurus myosuroides = experiment: Field trial Example 2, combined application: ALOMY; conditions: Metazachlor 500 g ai/ha solo, 28 DAT
Method: as §6, §4, §7, §8, §9

Centaurea cyanus = experiment: Field trial Example 2, combined application: CENCY; conditions: Metazachlor 375 g ai/ha solo, 78 DAT
Method: as §6, §4, §7, §8, §9

[5] = clopyralid 120 g ai/ha solo, post-emergence (Table 10)
[6] = clopyralid 60 g ai/ha solo, post-emergence (Table 10)
[7] = metazachlor 375 g ai/ha solo, post-emergence (Table 10)
[8] = metazachlor 187 g ai/ha solo, post-emergence (Table 10)
[9] = Metazachlor 375 g ai/ha solo, 29 DAT
[10] = Metazachlor 500 g ai/ha solo, 29 DAT
[11] = Metazachlor 375 g ai/ha solo, 28 DAT
[12] = pethoxamid 600 g ai/ha solo, post-emergence

In the case of `COC[C@H](C)N(C(=O)CCl)c1c(C)csc1C` [DMTA-P, Dimethenamid-P], the “% activity 28 DAT” value (Centauria cyanus; DMTA-P 125 g ai/ha solo) is reported as 20%, the “% activity 28 DAT” value (Mercurialis annua; DMTA-P 63 g ai/ha solo, post-emergence) is reported as 15% and the “% activity 28 DAT” value (Mercurialis annua; DMTA-P 125 g ai/ha solo, post-emergence) is reported as 25%.
In the case of `O=C(O)c1nc(Cl)ccc1Cl` [clopyralid], the “% activity 28 DAT” value (Papaver rhoeas [1]; [5]) is reported as 20%, the “% activity 28 DAT” value (Lamium purpureum; [6]) is reported as 15% and the “% activity 28 DAT” value (Lamium purpureum; [5]) is reported as 15%. The “% activity 28 DAT” value (Capsella bursa-pasturis; clopyralid 120 g ai/ha solo) was 10% and the “% activity 28 DAT” value (Mercurialis annua; [6]) was 15%.
For `CC(C)N(C(=O)COc1nnc(C(F)(F)F)s1)c1ccc(F)cc1` [flufenacet], the “% activity 28 DAT” value (Lamium purpureum; flufenacet 60 g ai/ha solo, post-emergence) was 60%, the “% activity 28 DAT” value (Lamium purpureum; flufenacet 120 g ai/ha solo, post-emergence) was 60% and the “% activity 28 DAT” value (Stellaria media [2]) was 0%. For the same compound, the “% activity 28 DAT” value (Centauria cyanus; flufenacet 60 g ai/ha solo) was 0% and the “% activity 28 DAT” value (Centauria cyanus; flufenacet 120 g ai/ha solo) was 20%.
With `Cc1cccc(C)c1N(Cn1cccn1)C(=O)CCl` [metazachlor] the “% activity 28 DAT” value (Papaver rhoeas [1]; [7]) was 30%, the “% activity 28 DAT” value (Lamium purpureum; [8]) was 75% and the “% activity 28 DAT” value (Lamium purpureum; [7]) was 75%. The inhibition at 187 g/ha (Lamium purpureum; Lamium purpureum, 672 h, solo, 187 g ai/ha, post-emergence, greenhouse, 28 DAT) was 75%, the “% activity” value (Stellaria media [3]) was 88% and the “% activity” value (Anthemis arvensis; [9]) was 40%. For the same compound, the “% activity” value (Anthemis arvensis; [10]) was 57%, the “% activity” value (Anthemis arvensis; Metazachlor 500 g ai/ha solo, 78 DAT) was 60% and the “% activity” value (Papaver rhoeas [4]; [11]) was 50%. The “% activity” value (Papaver rhoeas [4]; [9]) was 55%, the “% activity” value (Papaver rhoeas [4]; Metazachlor 375 g ai/ha solo, 72 DAT) was 53% and the “% activity” value (Papaver rhoeas [4]; Metazachlor 375 g ai/ha solo, 78 DAT) was 55%. The “% activity” value (Papaver rhoeas [4]; [10]) was 75%, the “% activity” value (Matricaria inodora; [11]) was 42% and the “% activity” value (Matricaria inodora; [9]) was 88%. For the same compound, the “% activity” value (Matricaria inodora; Metazachlor 500 g ai/ha solo, 28 DAT) was 67%, the inhibition at 187 g/ha (Matricaria chamomilla) was 10% and the “% activity” value (Alopecurus myosuroides) was 82%. The “% activity 28 DAT” value (Capsella bursa-pasturis; metazachlor 375 g ai/ha solo) was 25%, the inhibition at 187 g/ha (Centauria cyanus; 672 h, solo, 187 g ai/ha, greenhouse, 28 DAT) was 20% and the “% activity 28 DAT” value (Mercurialis annua; [8]) was 15%. The inhibition at 187 g/ha (Mercurialis annua; Mercurialis annua, 672 h, solo, 187 g ai/ha, post-emergence, greenhouse, 28 DAT) was 15% and the “% activity” value (Centaurea cyanus) was 32%.
`CCOCCN(C(=O)CCl)C(=C(C)C)c1ccccc1` [pethoxamid] was tested, and the “% activity 28 DAT” value (Papaver rhoeas [1]; [12]) was 25%, the “% activity 28 DAT” value (Centauria cyanus; pethoxamid 150 g ai/ha solo) was 0% and the “% activity 28 DAT” value (Centauria cyanus; pethoxamid 300 g ai/ha solo) was 25%. For the same compound, the “% activity 28 DAT” value (Centauria cyanus; pethoxamid 600 g ai/ha solo) was 30%, the “% activity 28 DAT” value (Mercurialis annua; pethoxamid 150 g ai/ha solo, post-emergence) was 0% and the “% activity 28 DAT” value (Mercurialis annua; pethoxamid 300 g ai/ha solo, post-emergence) was 0%. For the same compound, the “% activity 28 DAT” value (Mercurialis annua; [12]) was 10%.

Source: US20110092367A1, “Herbicidal Compositions Comprising 4-amino-3,6-dichloropyridine-2-carboxylic Acid” (BASF SE, priority 2008, published 2011)
